{"source": "patent US6512004B2", "about": "“Promoters of neural regeneration” (The Regents of the University of California, priority 1998, dated 2003)", "molecules": {"B1": {"name": "rMAG: recombinant protein consisting of the extracellular domain of MAG (protein, UniProt P07722 20-516, looked up)", "extracellular domain": "GHWGAWMPSSISAFEGTCVSIPCRFDFPDELRPAVVHGVWYFNSPYPKNYPPVVFKSRTQVVHESFQGRSRLLGDLGLRNCTLLLSTLSPELGGKYYFRGDLGGYNQYTFSEHSVLDIINTPNIVVPPEVVAGTEVEVSCMVPDNCPELRPELSWLGHEGLGEPTVLGRLREDEGTWVQVSLLHFVPTREANGHRLGCQAAFPNTTLQFEGYASLDVKYPPVIVEMNSSVEAIEGSHVSLLCGADSNPPPLLTWMRDGMVLREAVAESLYLDLEEVTPAEDGIYACLAENAYGQDNRTVELSVMYAPWKPTVNGTVVAVEGETVSILCSTQSNPDPILTIFKEKQILATVIYESQLQLELPAVTPEDDGEYWCVAENQYGQRATAFNLSVEFAPIILLESHCAAARDTVQCLCVVKSNPEPSVAFELPSRNVTVNETEREFVYSERSGLLLTSILTLRGQAQAPPRVICTSRNLYGTQSLELPFQGAHRLMWAKIGP", "modifications": "extracellular domain", "notes": "recombinant protein consisting of the extracellular domain of MAG"}, "B2": {"name": "Sema III: a diffusible member of the semaphorin family, purified from conditioned medium of 293-EBNA cell lines (protein, UniProt Q14563 21-771, looked up)", "Semaphorin-3A": "NYQNGKNNVPRLKLSYKEMLESNNVITFNGLANSSSYHTFLLDEERSRLYVGAKDHIFSFDLVNIKDFQKIVWPVSYTRRDECKWAGKDILKECANFIKVLKAYNQTHLYACGTGAFHPICTYIEIGHHPEDNIFKLENSHFENGRGKSPYDPKLLTASLLIDGELYSGTAADFMGRDFAIFRTLGHHHPIRTEQHDSRWLNDPKFISAHLISESDNPEDDKVYFFFRENAIDGEHSGKATHARIGQICKNDFGGHRSLVNKWTTFLKARLICSVPGPNGIDTHFDELQDVFLMNFKDPKNPVVYGVFTTSSNIFKGSAVCMYSMSDVRRVFLGPYAHRDGPNYQWVPYQGRVPYPRPGTCPSKTFGGFDSTKDLPDDVITFARSHPAMYNPVFPMNNRPIVIKTDVNYQFTQIVVDRVDAEDGQYDVMFIGTDVGTVLKVVSIPKETWYDLEEVLLEEMTVFREPTAISAMELSTKQQQLYIGSTAGVAQLPLHRCDIYGKACAECCLARDPYCAWDGSACSRYFPTAKRRTRRQDIRNGDPLTHCSDLHHDNHHGHSPEERIIYGVENSSTFLECSPKSQRALVYWQFQRRNEERKEEIRVDDHIIRTDQGLLLRSLQQKDSGNYLCHAVEHGFIQTLLKVTLEVIDTEHLEELLHKDDDGDGSKTKEMSNSMTPSQKVWYRDFMQLINHPNLNTMDEFCEQVWKRDRKQRRQRPGHTPGNSNKWKHLQENKKGRNRRTHEFERAPRSV"}}, "assay_type_in_all_cases": "cell-based", "key": {"[1]": {"system": "growth cones of the cultured Xenopus spinal neuron", "test": "Growth cone turning in a Sema III gradient", "conditions": "for growth cone turning response in Sema III gradient with agent in culture medium: Sema III 50 μg/ml in the pipette, 8-br-cGMP 100 μM, Sp-cGMPS 10 μM, PP-9 10 μM, SNAP 300 μM, Rp-cGMPS 10 μM, cAMPS analogues 20 μM, one-hour exposure; for conversion of the Sema III turning response in the presence of 8-br-cGMP: 8-br-cGMP 100 μM plus Rp-cAMPS or Sp-cAMPS 20 μM", "experimental": "Collapsin-1/Semaphorin III/D (Sema III), a diffusible member of the semaphorin family can repel or cause collapse of growth cones in culture (6). […] We analyzed the effect of a microscopic gradient of Sema III on growth cones of the cultured Xenopus spinal neuron (8). Sema III-containing saline was applied in pulses from a micropipette positioned 100 μm from the center of the growth cone and at a 45° angle with respect to the original direction of neurite extension. […] The repulsive response was dose-dependent with a minimal response occurring at an effective concentration of about 10 ng/ml at the growth cone (8). Heat-inactivated Sema III was ineffective (FIG. 1A). […] The rate of neurite extension was unaffected by the presence of the Sema III gradient.\n(§1) 8. Dissociated Xenopus spinal neurons were prepared as described (4,5). Isolated spinal neurons were used for experiments at room temperature (22°-24° C.) 14-22 hour after plating. Sema III was purified from conditioned medium of stable 293-EBNA cell lines secreting Sema III-AP as described (17). To inactivate Sema III activity, the supernatant containing Sema III-AP was heated at 85° C. for 45 minutes [J. Fan and J. A. Raper, Neuron 14, 263 (1995)]. Microscopic gradients of diffusible factors were produced as described (4,5). The average concentration of factors at the growth cone was about 10^3-fold lower than that in the pipette [A. M. Lohof, M. Quilian, Y. Dan and M-m. Poo, J. Neurosci. 12, 1253 (1992)], and a concentration gradient of 5-10% was created across a growth cone 10 μm wide, 100 μm away from the tip of the ejecting pipette. The original direction of neurite growth was defined by the last 10-μm segment of the neurite. The turning angle was defined by the angle between the original direction of neurite extension and a straight line connecting the positions of the growth cone at the onset and the end of the one hour period. Only growth cones with a net extension >5 μm over the one-hour period were scored.\n(§2) 10. M. A. Schwarzschild and R. E. Zigmond, J. Neurochem. 56, 400 (1991). Pharmacological agents were added to the culture medium at least 30 minutes before the gradient was applied and were present during the experiments. The final concentrations of pharmacological agents in the medium were listed."}, "[2]": {"system": "growth cones of Xenopus spinal neurons", "test": "Growth cone turning in a netrin-1 gradient", "conditions": "for turning response in netrin-1 gradient with agent in medium: netrin-1 5 μg/ml in the pipette, Rp-cGMPS 10 μM, 8-br-cGMP 100 μM, Rp-cAMPS 20 μM", "experimental": "(§3) FIGS. 4A-4D. (A) Effects of manipulating cyclic nucleotide levels on turning induced by a rMAG gradient (150 μg/ml in the pipette) in normal medium, in medium containing 8-br-cGMP (100 μM) or Sp-cAMPS (20 μM), and by heat-inactivated rMAG in normal medium. […] (B) Effects of reducing [Ca^2+]o on turning responses induced by rMAG. […] (C) Turning responses induced by a gradient of netrin-1 (5 μg/ml in the pipette) (5), in normal medium and in medium containing Rp-cGMPS (10 μM), 8-br-cGMP (100 μM), Rp-cAMPS (20 μM), or both Rp-cAMPS (20 μM) and 8-br-cGMP (100 μM). […] (D) Turning induced by a NT-3 gradient (50 μg/ml in the pipette) in normal medium and in medium containing Rp-cAMPS (20 μM) or Rp-cGMPS (10 μM), or in medium containing 1 μM Ca^2+.\nas §1, §2"}, "[3]": {"system": "growth cones of Xenopus spinal neurons", "test": "Growth cone turning in a rMAG gradient", "conditions": "for growth cone turning response in rMAG gradient with agent in medium: rMAG 150 μg/ml in the pipette, 8-br-cGMP 100 μM, Sp-cAMPS 20 μM", "text": "To examine whether the responses to other repulsive factors can be converted, we studied myelin-associated glycoprotein (MAG), a component of myelin and an inhibitor of axonal regeneration (22). […] However, the repulsion by rMAG was not affected by the addition of 8-br-cGMP. […] Thus the turning response induced by rMAG can be modulated by cAMP-dependent activities. This is reminiscent of the turning responses induced by gradients of BDNF and netrin-1 (4,5), although the latter factors are normally attractive and are converted to repulsive by inhibition of cAMP-dependent activities.\nas §1\n10. M. A. Schwarzschild and R. E. Zigmond, J. Neurochem. 56, 400 (1991). Pharmacological agents were added to the culture medium at least 30 minutes before the gradient was applied and were present during the experiments. […]"}, "[4]": {"system": "rat dorsal root ganglion (DRG) axons", "test": "Growth cone collapse assay with Sema III on DRG explants", "conditions": "for inhibition of the collapsing activity of Sema III: agent added an hour before the collapse assay; for effect of agent alone on growth cones: without Sema III", "experimental": "21. DRG explants derived from E14 rat embryos were cultured with 25 ng/ml NGF on plates precoated with poly-D-lysine and laminin for 20 hours before experiments as described (17). Pharmacological agents were added an hour before the collapse assay. The collapse assay was performed on sensory axons from these explants using Sema III-AP-containing medium essentially as described (17). For visualization, growth cones were stained with rhodamine-phalloidin, then washed and mounted."}, "[5]": {"system": "growth cones of Xenopus spinal neurons", "test": "Growth cone turning in a NT-3 gradient", "conditions": "NT-3 50 μg/ml in the pipette; Rp-cGMPS 10 μM, Rp-cAMPS 20 μM", "experimental": "as §3\n8. Dissociated Xenopus spinal neurons were prepared as described (4,5). Isolated spinal neurons were used for experiments at room temperature (22°-24° C.) 14-22 hour after plating. Sema III was purified from conditioned medium of stable 293-EBNA cell lines secreting Sema III-AP as described (17). To inactivate Sema III activity, the supernatant containing Sema III-AP was heated at 85° C. for 45 minutes [J. Fan and J. A. Raper, Neuron 14, 263 (1995)]. Microscopic gradients of diffusible factors were produced as described (4,5). […] Only growth cones with a net extension >5 μm over the one-hour period were scored. […]"}}, "note": "Entries after “also recorded” stand apart in the source; their conditions may differ.", "data": [{"molecule": "CC(=O)N[C@H](C(=O)O)C(C)(C)SN=O", "note": "(racemic) [S-Nitroso-N-acetylpenicillamine]", "values": [{"measurement": "growth cone turning response in Sema III gradient with agent in culture medium", "setting": "[1]", "value": "abolished the repulsive turning response without causing a significant attractive response"}]}, {"molecule": "Nc1nc2c(nc(Br)n2[C@@H]2O[C@@H]3COP(=O)(O)O[C@H]3[C@H]2O)c(=O)[nH]1", "note": "[Activator 8-br-cGMP, 8-br-cGMP]", "values": [{"measurement": "growth cone turning response in Sema III gradient with agent in culture medium", "setting": "[1]", "value": "nearly all growth cones turned toward rather than away from the pipette; also recorded: attractive response"}, {"measurement": "repulsive turning in netrin-1 gradient in the presence of Rp-cAMPS", "setting": "[2]; Rp-cAMPS 20 μM and 8-br-cGMP 100 μM", "value": "not affected"}, {"measurement": "turning response in netrin-1 gradient with agent in medium", "setting": "[2]", "value": "did not affect the attractive turning"}, {"measurement": "growth cone turning response in rMAG gradient with agent in medium", "setting": "[3]", "value": "not affected"}, {"measurement": "inhibition of the collapsing activity of Sema III", "setting": "[4]", "value": "inhibited the collapsing activity of Sema III in a dose-dependent manner"}, {"measurement": "concentrations needed to inhibit the collapsing activity of Sema III", "setting": "[4]; rat DRG explants", "value": "0.5 to 5", "unit": "mM"}, {"measurement": "effect of agent alone on growth cones", "setting": "[4]", "value": "no detectable effect"}]}, {"molecule": "Nc1ncnc2c1ncn2[C@@H]1O[C@@H]2CO[P@@](O)(=S)O[C@H]2[C@H]1O", "note": "[Rp-cAMPS]", "values": [{"measurement": "conversion of the Sema III turning response in the presence of 8-br-cGMP", "setting": "[1]", "value": "blocked the conversion of the turning response"}, {"measurement": "turning response in netrin-1 gradient with agent in medium", "setting": "[2]", "value": "repulsive turning"}, {"measurement": "attractive response in a NT-3 gradient with agent in medium", "setting": "[5]", "value": "no effect"}]}, {"molecule": "Nc1nc2c(ncn2[C@@H]2O[C@@H]3COP(O)(=S)O[C@H]3[C@H]2O)c(=O)[nH]1", "note": "(stereo partly drawn) [Rp-cGMPS]", "values": [{"measurement": "growth cone turning response in Sema III gradient with agent in culture medium", "setting": "[1]", "value": "did not affect the growth cone response"}, {"measurement": "turning response in netrin-1 gradient with agent in medium", "setting": "[2]", "value": "did not affect the attractive turning"}, {"measurement": "attractive response in a NT-3 gradient with agent in medium", "setting": "[5]", "value": "converted to repulsive response"}]}, {"molecule": "Nc1ncnc2c1ncn2[C@@H]1O[C@@H]2COP(O)(=S)O[C@H]2[C@H]1O", "note": "(stereo partly drawn) [Sp-cAMPS]", "values": [{"measurement": "conversion of the Sema III turning response in the presence of 8-br-cGMP", "setting": "[1]", "value": "not"}, {"measurement": "growth cone turning response in rMAG gradient with agent in medium", "setting": "[3]", "value": "converted to attraction"}, {"measurement": "inhibition of the collapsing activity of Sema III", "setting": "[4]", "value": "not"}, {"measurement": "effect of agent alone on growth cones", "setting": "[4]", "value": "no detectable effect"}]}, {"molecule": "Nc1nc2c(ncn2[C@@H]2O[C@@H]3COP(O)(=S)O[C@H]3[C@H]2O)c(=O)[nH]1", "note": "(stereo partly drawn) [Sp-cGMPS]", "values": [{"measurement": "growth cone turning response in Sema III gradient with agent in culture medium", "setting": "[1]", "value": "nearly all growth cones turned toward rather than away from the pipette"}]}, {"molecule": "B1", "values": [{"measurement": "growth cone turning induced by the rMAG gradient", "setting": "[3]; normal medium", "value": "repelled growth cones"}]}, {"molecule": "B2", "values": [{"measurement": "rate of neurite extension", "setting": "[1]; in the presence of the Sema III gradient", "value": "unaffected"}, {"measurement": "effective concentration at the growth cone for minimal repulsive response", "setting": "[1]; normal medium", "value": "about 10 ng/ml"}, {"measurement": "growth cone turning induced by the factor gradient", "setting": "[1]; normal medium, pipette 100 μm from growth cone, 45° angle", "value": "Most growth cones grew away from the pipette"}, {"measurement": "collapse of growth cones", "setting": "[1]; up to 100 μg/ml of Sema III in the pipette", "value": "No obvious collapse of growth cones"}]}]}
